“And” between values parts separate entries of the source, which are not always exact repeats. Equal values may be shown once. Inconclusive results and toxic doses are left out. No stated cut-off is given here; in the data, active means T/C of 150% or more; inactive means T/C below 125%.
Tested on: L1210 leukemia ip in BDF1 mice, survival T/C
Test: NCI In Vivo Anticancer Drug Screen. Data for tumor model L1210 Leukemia (intraperitoneal) in B6D2F1 (BDF1) mice
Conditions: endpoint: mean survival time, higher = longer survival
In short: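 Transplantable tumor model; survival measured in treated vs vehicle control mice. Value = treated/control.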

[1] = dose: 100.0 mg/kg/injection, schedule: Q04DX003 (ip), vehicle: saline with Tween-80
[2] = dose: 200.0 mg/kg/injection, schedule: Q04DX003 (ip), vehicle: saline with Tween-80
[3] = dose: 400.0 mg/kg/injection, schedule: Q04DX003 (ip), vehicle: saline with Tween-80
[4] = dose: 100.0 mg/kg/injection, schedule: Q01DX009 (ip), vehicle: Klucel (hydroxypropylcellulose) (HPC)
[5] = dose: 200.0 mg/kg/injection, schedule: Q01DX009 (ip), vehicle: Klucel (hydroxypropylcellulose) (HPC)
[6] = dose: 400.0 mg/kg/injection, schedule: Q01DX009 (ip), vehicle: Klucel (hydroxypropylcellulose) (HPC)
[7] = dose: 100.0 mg/kg/injection, schedule: Q01DX001 (ip), vehicle: saline
[8] = dose: 3.12 mg/kg/injection, schedule: Q01DX009 (ip), vehicle: saline
[9] = dose: 6.25 mg/kg/injection, schedule: Q01DX009 (ip), vehicle: saline
[10] = dose: 12.5 mg/kg/injection, schedule: Q01DX009 (ip), vehicle: saline
[11] = dose: 25.0 mg/kg/injection, schedule: Q04DX003 (ip), vehicle: saline
[12] = dose: 50.0 mg/kg/injection, schedule: Q04DX003 (ip), vehicle: saline
[13] = dose: 100.0 mg/kg/injection, schedule: Q04DX003 (ip), vehicle: saline
[14] = dose: 200.0 mg/kg/injection, schedule: Q04DX003 (ip), vehicle: saline
[15] = dose: 100.0 mg/kg/injection, schedule: Q01DX009 (ip), vehicle: saline with Tween-80
[16] = dose: 200.0 mg/kg/injection, schedule: Q01DX009 (ip), vehicle: saline with Tween-80
[17] = dose: 400.0 mg/kg/injection, schedule: Q01DX009 (ip), vehicle: saline with Tween-80

Measured: T/C

Cc1nc(S(C)(=O)=O)nc(S(C)(=O)=O)c1Cl
inactive: dose: 1.5 mg/kg/injection, schedule: Q01DX001 (ip), vehicle: Klucel (hydroxypropylcellulose) (HPC) 92 % of control | dose: 3.0 mg/kg/injection, schedule: Q01DX001 (ip), vehicle: Klucel (hydroxypropylcellulose) (HPC) 95 % of control | dose: 6.0 mg/kg/injection, schedule: Q01DX001 (ip), vehicle: Klucel (hydroxypropylcellulose) (HPC) 104 % of control | dose: 12.0 mg/kg/injection, schedule: Q01DX001 (ip), vehicle: Klucel (hydroxypropylcellulose) (HPC) 104 % of control | dose: 12.5 mg/kg/injection, schedule: Q01DX001 (ip), vehicle: Klucel (hydroxypropylcellulose) (HPC) 107 % of control

C/C(=N\N=C(/C)c1ccc2cc3c(cc2c1)OCO3)c1ccc2cc3c(cc2c1)OCO3
inactive: dose: 75.0 mg/kg/injection, schedule: Q01DX001 (ip), vehicle: saline 97 % of control | dose: 150.0 mg/kg/injection, schedule: Q01DX001 (ip), vehicle: saline 92 % of control | dose: 300.0 mg/kg/injection, schedule: Q01DX001 (ip), vehicle: saline 89 % of control

NC(=O)N/N=C/c1cccs1
inactive: dose: 25.0 mg/kg/injection, schedule: Q04DX003 (ip), vehicle: saline with Tween-80 95 % of control | dose: 50.0 mg/kg/injection, schedule: Q04DX003 (ip), vehicle: saline with Tween-80 103 % of control | [1] 106 % of control

Cc1cc(CC(O)(C(F)(F)F)C(F)(F)F)c(C#N)c(=O)[nH]1
inactive: [1] 97 % of control | [2] 97 % of control | [3] 97 % of control

CCN=C(CCl)NS(=O)(=O)c1ccc(C)cc1
inactive: dose: 25.0 mg/kg/injection, schedule: Q04DX002 (ip), vehicle: saline with Tween-80 113 % of control | dose: 50.0 mg/kg/injection, schedule: Q04DX002 (ip), vehicle: saline with Tween-80 109 % of control | dose: 100.0 mg/kg/injection, schedule: Q04DX002 (ip), vehicle: saline with Tween-80 109 % of control

O=C1CC(c2ccccc2)=NCCN1
inactive: [4] 97 % of control | [5] 95 % of control | [6] 114 % of control

C=CC1(O)CCOCC1
inactive: dose: 25.0 mg/kg/injection, schedule: Q01DX001 (ip), vehicle: saline 97 % of control | dose: 50.0 mg/kg/injection, schedule: Q01DX001 (ip), vehicle: saline 97 % of control | [7] 97 % of control

O=S(=O)(OCC#CCOS(=O)(=O)c1cccs1)c1cccs1
inactive: dose: 6.2 mg/kg/injection, schedule: Q01DX009 (ip), vehicle: Klucel (hydroxypropylcellulose) (HPC) 101 % of control | dose: 12.5 mg/kg/injection, schedule: Q01DX009 (ip), vehicle: Klucel (hydroxypropylcellulose) (HPC) 111 % of control | dose: 25.0 mg/kg/injection, schedule: Q01DX009 (ip), vehicle: Klucel (hydroxypropylcellulose) (HPC) 105 % of control | dose: 100.0 mg/kg/injection, schedule: Q01DX001 (ip), vehicle: Klucel (hydroxypropylcellulose) (HPC) 109 % of control | dose: 100.0 mg/kg/injection, schedule: Q04DX003 (ip), vehicle: Klucel (hydroxypropylcellulose) (HPC) 97 % of control | dose: 200.0 mg/kg/injection, schedule: Q01DX001 (ip), vehicle: Klucel (hydroxypropylcellulose) (HPC) 106 % of control | dose: 200.0 mg/kg/injection, schedule: Q04DX003 (ip), vehicle: Klucel (hydroxypropylcellulose) (HPC) 105 % of control | dose: 400.0 mg/kg/injection, schedule: Q01DX001 (ip), vehicle: Klucel (hydroxypropylcellulose) (HPC) 103 % of control

CN1CCN(CCC=C2c3ccccc3Sc3ccc(S(=O)(=O)N(C)C)cc32)CC1
inactive: dose: 0.39 mg/kg/injection, schedule: Q01DX009 (ip), vehicle: saline 114 % of control | dose: 0.78 mg/kg/injection, schedule: Q01DX009 (ip), vehicle: saline 101 % of control | dose: 1.56 mg/kg/injection, schedule: Q01DX009 (ip), vehicle: saline 121 % of control | [8] 114 % of control | [9] 114 % of control | [10] 102 % of control | [11] 95 % of control | [12] 95 % of control | dose: 100.0 mg/kg/injection, schedule: Q01DX001 (ip), vehicle: carboxymethylcellulose (CMC) 121 % of control | [13] 122 % of control | dose: 200.0 mg/kg/injection, schedule: Q01DX001 (ip), vehicle: carboxymethylcellulose (CMC) 103 % of control | [14] 104 % of control | dose: 400.0 mg/kg/injection, schedule: Q01DX001 (ip), vehicle: carboxymethylcellulose (CMC) 118 % of control

Cc1cccc(Nc2c3ccccc3nc3ccccc23)c1
inactive: dose: 25.0 mg/kg/injection, schedule: Q01DX001 (ip), vehicle: saline with Tween-80 97 % of control | dose: 50.0 mg/kg/injection, schedule: Q01DX001 (ip), vehicle: saline with Tween-80 100 % of control | dose: 100.0 mg/kg/injection, schedule: Q01DX001 (ip), vehicle: saline with Tween-80 104 % of control

CC1(C)C2CCC1(CS(=O)(=O)O)C(=O)C2.[Ag] (centres undefined)
inactive: dose: 3.12 mg/kg/injection, schedule: Q01DX009 (ip), vehicle: saline with Tween-80 92 % of control | dose: 6.25 mg/kg/injection, schedule: Q01DX009 (ip), vehicle: saline with Tween-80 87 % of control | dose: 12.5 mg/kg/injection, schedule: Q01DX009 (ip), vehicle: saline with Tween-80 90 % of control

CC(C)=Cc1ccno1
inactive: [7] 100 % of control | dose: 200.0 mg/kg/injection, schedule: Q01DX001 (ip), vehicle: saline 100 % of control | dose: 400.0 mg/kg/injection, schedule: Q01DX001 (ip), vehicle: saline 100 % of control

c1ccc(Cc2nn[nH]n2)cc1
inactive: dose: 100.0 mg/kg/injection, schedule: Q04DX002 (ip), vehicle: Klucel (hydroxypropylcellulose) (HPC) 105 % of control | dose: 200.0 mg/kg/injection, schedule: Q04DX002 (ip), vehicle: Klucel (hydroxypropylcellulose) (HPC) 101 % of control | dose: 400.0 mg/kg/injection, schedule: Q04DX002 (ip), vehicle: Klucel (hydroxypropylcellulose) (HPC) 105 % of control

COc1cc(/C=N/NC(=O)c2ccccc2OC)ccc1O
inactive: [4] 97 % of control | [5] 98 % of control | [6] 94 % of control

O=C(Nc1cccc(Cl)c1Cl)Oc1ccc(OCc2ccccc2)cc1
inactive: [4] 87 % of control | [6] 95 % of control

CC(=O)N(C)c1ccc(NC(=O)Cc2ccccc2)cc1
inactive: [15] 96 % of control | [16] 102 % of control | [17] 95 % of control

O=C1CCC(=O)N1CCCO
inactive: [13] 107 % of control | [14] 100 % of control | dose: 400.0 mg/kg/injection, schedule: Q04DX003 (ip), vehicle: saline 104 % of control

COC1CC(N=[N+]=[N-])C(O)C(C)O1 (centres undefined)
inactive: [15] 109 % of control and 105 % of control | [1] 97 % of control and 96 % of control | [16] 107 % of control and 89 % of control | [2] 103 % of control and 97 % of control | [17] 104 % of control and 100 % of control | [3] 108 % of control and 103 % of control

C=C(C)CC1(CC)C(=O)NC(=S)NC1=O
inactive: [1] 96 % of control | [2] 98 % of control

CC(=O)Oc1cccc(N(C)C)c1
inactive: [11] 97 % of control | [12] 100 % of control | dose: 100.0 mg/kg/injection, schedule: Q01DX001 (ip), vehicle: acetone 98 % of control | [13] 91 % of control

CC(=O)Oc1cccc(OC(=O)Nc2ccc(C)c(NC(=O)Oc3cccc(OC(C)=O)c3)c2)c1
inactive: [4] 93 % of control | [5] 96 % of control | [6] 94 % of control

Cc1ncc(CO)c(C2NOCc3nccnc32)c1O (centres undefined)
inactive: [8] 93 % of control | [9] 92 % of control | [10] 90 % of control | dose: 12.5 mg/kg/injection, schedule: Q04DX003 (ip), vehicle: saline 95 % of control

CNC1C(c2ccc(C)cc2)=NN(c2ccccc2)C1c1ccccc1 (centres undefined)
inactive: dose: 100.0 mg/kg/injection, schedule: Q01DX001 (ip), vehicle: saline sonified 95 % of control | dose: 200.0 mg/kg/injection, schedule: Q01DX001 (ip), vehicle: saline sonified 95 % of control | dose: 400.0 mg/kg/injection, schedule: Q01DX001 (ip), vehicle: saline sonified 89 % of control

From PubChem BioAssay AID248 (DTP/NCI, 2004)
